From ChEMBL document CHEMBL1909046, “DrugMatrix in vitro pharmacology data”

Tests used:
Melanocortin receptor 4 = Melanocortin receptor 4 (Homo sapiens, UniProt P32245); type: cell membranes, Membrane; details: hek293; also: in other assays of this panel Not Active means under 50% inhibition at 10 µM
[1] = target: Tyrosine-protein kinase Fyn (Homo sapiens, UniProt P06241); assay: biochemical; type: cell-based, Insect cells; details: insect cells;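 also: enzymatic inhibition of Fyn kinase activity measured with Poly(Glu:Tyr) as the phosphorylation substrate; in other assays of this panel Not Active means under 50% inhibition at 10 µM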
Sequence of Tyrosine-protein kinase Fyn (P06241 whole entry): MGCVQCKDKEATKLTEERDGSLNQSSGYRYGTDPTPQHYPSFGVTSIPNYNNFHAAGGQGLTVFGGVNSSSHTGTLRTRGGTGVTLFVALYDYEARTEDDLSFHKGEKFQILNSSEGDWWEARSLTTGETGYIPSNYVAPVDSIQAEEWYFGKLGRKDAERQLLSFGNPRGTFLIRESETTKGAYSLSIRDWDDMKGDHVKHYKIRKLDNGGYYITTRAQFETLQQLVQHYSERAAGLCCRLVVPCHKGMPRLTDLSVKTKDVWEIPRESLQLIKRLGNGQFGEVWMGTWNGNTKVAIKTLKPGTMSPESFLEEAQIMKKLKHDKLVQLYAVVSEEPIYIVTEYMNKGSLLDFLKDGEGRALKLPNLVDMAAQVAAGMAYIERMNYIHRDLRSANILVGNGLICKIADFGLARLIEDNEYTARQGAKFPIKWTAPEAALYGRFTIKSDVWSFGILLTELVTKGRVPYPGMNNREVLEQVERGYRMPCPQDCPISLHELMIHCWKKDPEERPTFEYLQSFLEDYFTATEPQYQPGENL

[2] = target: T1, 5-hydroxytryptamine receptor 2C (Homo sapiens, UniProt P28335); assay: DRUGMATRIX: Serotonin (5-Hydroxytryptamine) 5-HT2C radioligand binding (ligand: [3H] Mesulergine); type: cell membranes, CHO-K1, Membrane; details: cho-k1; Not Active = under 50% inhibition at 10 µM
T1 sequence (P28335 whole entry): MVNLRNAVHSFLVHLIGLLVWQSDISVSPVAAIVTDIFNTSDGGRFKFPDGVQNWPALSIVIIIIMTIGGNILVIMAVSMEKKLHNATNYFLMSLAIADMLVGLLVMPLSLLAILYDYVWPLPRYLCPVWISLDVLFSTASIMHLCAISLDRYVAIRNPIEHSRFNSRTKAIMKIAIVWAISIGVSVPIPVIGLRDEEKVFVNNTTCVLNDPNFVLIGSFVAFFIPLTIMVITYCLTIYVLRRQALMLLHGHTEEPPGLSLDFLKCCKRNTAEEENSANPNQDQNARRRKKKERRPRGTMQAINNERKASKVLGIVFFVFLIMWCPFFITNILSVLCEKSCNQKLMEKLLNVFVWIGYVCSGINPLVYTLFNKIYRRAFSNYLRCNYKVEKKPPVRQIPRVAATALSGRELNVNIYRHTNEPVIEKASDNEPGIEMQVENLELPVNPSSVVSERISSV

[3] = target: T2, 3-hydroxy-3-methylglutaryl-coenzyme A reductase (Homo sapiens, UniProt P04035); parameters: species or system Escherichia coli;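 also: enzyme inhibition assay of HMG-CoA reductase using radiolabeled [14C]HMG-CoA as substrate; in other assays of this panel Not Active means under 50% inhibition at 10 µM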
T2 sequence (P04035 whole entry): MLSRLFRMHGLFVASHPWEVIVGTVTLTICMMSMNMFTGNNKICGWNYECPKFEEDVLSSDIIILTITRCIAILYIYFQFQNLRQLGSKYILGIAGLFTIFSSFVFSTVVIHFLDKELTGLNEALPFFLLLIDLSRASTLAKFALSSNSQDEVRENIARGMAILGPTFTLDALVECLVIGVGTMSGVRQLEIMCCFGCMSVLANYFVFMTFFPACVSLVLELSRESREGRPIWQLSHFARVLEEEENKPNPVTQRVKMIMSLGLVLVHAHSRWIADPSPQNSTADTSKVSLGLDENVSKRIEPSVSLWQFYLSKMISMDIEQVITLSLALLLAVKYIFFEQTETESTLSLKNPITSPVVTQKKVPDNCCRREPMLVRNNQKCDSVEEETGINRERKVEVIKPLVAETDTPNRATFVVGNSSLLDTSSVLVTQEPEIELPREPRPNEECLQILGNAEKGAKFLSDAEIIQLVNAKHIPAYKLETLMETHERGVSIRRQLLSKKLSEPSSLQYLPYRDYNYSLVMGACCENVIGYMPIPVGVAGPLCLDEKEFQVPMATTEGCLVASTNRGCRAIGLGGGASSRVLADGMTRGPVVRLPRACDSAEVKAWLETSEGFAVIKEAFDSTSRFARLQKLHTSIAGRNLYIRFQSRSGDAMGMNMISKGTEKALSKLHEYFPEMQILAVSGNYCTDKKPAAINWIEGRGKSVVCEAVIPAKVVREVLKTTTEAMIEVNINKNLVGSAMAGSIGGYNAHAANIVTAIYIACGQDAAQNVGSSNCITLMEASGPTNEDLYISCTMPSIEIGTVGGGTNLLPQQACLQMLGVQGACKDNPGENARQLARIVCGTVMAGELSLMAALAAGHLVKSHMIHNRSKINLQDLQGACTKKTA

Cytochrome P450 2C19 = Cytochrome P450 2C19 (Homo sapiens, UniProt P33261); details: bti-tn-5b1-4; also: in other assays of this panel Not Active means under 50% inhibition at 10 µM
Sequence of Cytochrome P450 2C19 (P33261 whole entry): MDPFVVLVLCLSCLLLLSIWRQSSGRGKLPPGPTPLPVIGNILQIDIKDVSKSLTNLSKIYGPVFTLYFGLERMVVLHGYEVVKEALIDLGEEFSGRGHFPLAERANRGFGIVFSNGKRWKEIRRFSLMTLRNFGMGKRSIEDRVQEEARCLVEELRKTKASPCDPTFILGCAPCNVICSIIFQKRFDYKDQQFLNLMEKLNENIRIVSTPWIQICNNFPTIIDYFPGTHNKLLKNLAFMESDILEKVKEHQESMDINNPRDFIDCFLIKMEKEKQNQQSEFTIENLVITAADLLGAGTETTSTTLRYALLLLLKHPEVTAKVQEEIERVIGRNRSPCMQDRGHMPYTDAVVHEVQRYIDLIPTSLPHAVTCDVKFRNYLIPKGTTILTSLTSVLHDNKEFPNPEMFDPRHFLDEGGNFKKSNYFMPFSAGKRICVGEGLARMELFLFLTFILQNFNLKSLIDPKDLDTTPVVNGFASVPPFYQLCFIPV

[4] = DRUGMATRIX: Calcium Channel Type L, Dihydropyridine radioligand binding (ligand: [3H] Nitrendipine); type: cell membranes, Rattus norvegicus, Wistar, Cerebral cortex, Membrane; details: Not Active = under 50% inhibition at 10 µM
[5] = target: 5-hydroxytryptamine receptor 6 (Homo sapiens, UniProt P50406); type: cell membranes, HeLa, Membrane; details: hela; also: in other assays of this panel Not Active means under 50% inhibition at 10 µM
Sequence of 5-hydroxytryptamine receptor 6 (P50406 whole entry): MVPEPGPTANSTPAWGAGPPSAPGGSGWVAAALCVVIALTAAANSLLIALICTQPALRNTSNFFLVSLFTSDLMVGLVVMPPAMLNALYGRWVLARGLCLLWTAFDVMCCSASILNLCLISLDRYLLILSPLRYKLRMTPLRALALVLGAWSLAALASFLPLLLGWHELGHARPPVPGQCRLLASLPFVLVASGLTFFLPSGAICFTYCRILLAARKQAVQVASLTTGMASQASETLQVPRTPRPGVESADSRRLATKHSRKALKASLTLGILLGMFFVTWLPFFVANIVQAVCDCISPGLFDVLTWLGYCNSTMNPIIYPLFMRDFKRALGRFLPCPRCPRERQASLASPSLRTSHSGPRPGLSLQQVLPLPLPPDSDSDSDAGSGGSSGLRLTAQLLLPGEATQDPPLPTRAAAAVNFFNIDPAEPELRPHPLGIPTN

[6] = target: Aldo-keto reductase family 1 member B1 (Rattus norvegicus, UniProt P07943); type: tissue-based, Lens of camera-type eye
[7] = target: T3, Alpha-2A adrenergic receptor (Homo sapiens, UniProt P08913); type: cell membranes, Sf9, Membrane; details: sf9; also: in other assays of this panel Not Active means under 50% inhibition at 10 µM
T3 sequence (P08913 whole entry): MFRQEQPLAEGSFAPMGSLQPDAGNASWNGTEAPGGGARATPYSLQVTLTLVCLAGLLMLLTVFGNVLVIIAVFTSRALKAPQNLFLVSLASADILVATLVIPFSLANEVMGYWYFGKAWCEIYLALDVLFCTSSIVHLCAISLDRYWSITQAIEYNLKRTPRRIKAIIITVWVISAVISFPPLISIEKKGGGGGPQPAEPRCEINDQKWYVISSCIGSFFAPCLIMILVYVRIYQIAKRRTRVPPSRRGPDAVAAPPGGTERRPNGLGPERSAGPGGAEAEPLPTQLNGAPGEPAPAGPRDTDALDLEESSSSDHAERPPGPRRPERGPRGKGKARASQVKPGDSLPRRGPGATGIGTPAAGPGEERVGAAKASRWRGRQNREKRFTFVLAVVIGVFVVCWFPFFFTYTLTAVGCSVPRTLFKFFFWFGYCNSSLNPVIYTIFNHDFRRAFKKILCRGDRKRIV

[8] = target: T4, Muscarinic acetylcholine receptor M2 (Homo sapiens, UniProt P08172); type: cell membranes, CHO-K1, Membrane; details: cho-k1; also: in other assays of this panel Not Active means under 50% inhibition at 10 µM
T4 sequence (P08172 whole entry): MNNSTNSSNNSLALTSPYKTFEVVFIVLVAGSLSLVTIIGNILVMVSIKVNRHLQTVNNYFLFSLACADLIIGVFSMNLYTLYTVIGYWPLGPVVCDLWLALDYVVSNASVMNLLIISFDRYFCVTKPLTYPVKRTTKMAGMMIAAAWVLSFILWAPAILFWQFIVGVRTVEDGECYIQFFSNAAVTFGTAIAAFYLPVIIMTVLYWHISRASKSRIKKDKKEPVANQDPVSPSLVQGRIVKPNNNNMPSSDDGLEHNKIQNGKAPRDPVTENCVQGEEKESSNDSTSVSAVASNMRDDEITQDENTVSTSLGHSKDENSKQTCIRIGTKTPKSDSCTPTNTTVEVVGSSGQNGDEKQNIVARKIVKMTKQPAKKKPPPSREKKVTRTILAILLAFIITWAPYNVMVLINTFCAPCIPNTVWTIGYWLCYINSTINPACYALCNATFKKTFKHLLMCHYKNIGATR

Cytochrome P450 2E1 = Cytochrome P450 2E1 (Homo sapiens, UniProt P05181); details: bti-tn-5b1-4; also: in other assays of this panel Not Active means under 50% inhibition at 10 µM
Sequence of Cytochrome P450 2E1 (P05181 whole entry): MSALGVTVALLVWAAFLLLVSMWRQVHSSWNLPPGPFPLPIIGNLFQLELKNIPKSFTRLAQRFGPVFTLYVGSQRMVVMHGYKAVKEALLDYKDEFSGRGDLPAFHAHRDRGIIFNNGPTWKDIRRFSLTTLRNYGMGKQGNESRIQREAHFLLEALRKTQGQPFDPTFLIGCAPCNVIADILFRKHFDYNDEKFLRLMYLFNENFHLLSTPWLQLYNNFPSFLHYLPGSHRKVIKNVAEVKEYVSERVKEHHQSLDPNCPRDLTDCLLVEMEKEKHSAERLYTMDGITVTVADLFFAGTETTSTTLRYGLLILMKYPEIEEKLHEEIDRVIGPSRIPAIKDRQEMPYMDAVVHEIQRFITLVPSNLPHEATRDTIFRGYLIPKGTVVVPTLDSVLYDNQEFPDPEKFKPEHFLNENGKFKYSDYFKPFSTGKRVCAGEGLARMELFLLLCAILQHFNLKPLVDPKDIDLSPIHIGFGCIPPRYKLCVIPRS

Sequence of Melanocortin receptor 4 (P32245 whole entry): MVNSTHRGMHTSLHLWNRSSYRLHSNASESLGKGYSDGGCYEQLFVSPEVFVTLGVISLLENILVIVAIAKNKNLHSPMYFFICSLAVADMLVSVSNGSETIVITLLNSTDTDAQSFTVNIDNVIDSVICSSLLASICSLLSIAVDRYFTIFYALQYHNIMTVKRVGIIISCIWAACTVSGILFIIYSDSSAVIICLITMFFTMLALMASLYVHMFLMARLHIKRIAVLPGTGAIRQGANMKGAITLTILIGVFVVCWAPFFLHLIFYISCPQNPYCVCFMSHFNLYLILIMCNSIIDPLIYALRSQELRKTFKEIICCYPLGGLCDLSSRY

For `CC1(C)[C@@H](O[C@H]2O[C@H](C(=O)O)[C@@H](O)[C@H](O)[C@H]2O[C@@H]2O[C@H](C(=O)O)[C@@H](O)[C@H](O)[C@H]2O)CC[C@]2(C)[C@H]3C(=O)C=C4[C@@H]5C[C@@](C)(C(=O)O)CC[C@]5(C)CC[C@@]4(C)[C@]3(C)CC[C@@H]12` [GLYCYRRHIZIN], which IC50 (Melanocortin receptor 4) is on record?
Its IC50 is “Not Active”.

What about the IC50 [1] of the same compound?
The IC50 was “Not Active”.

What about the IC50 [2] of the same compound?
The IC50 was “Not Active”.

What about the IC50 [3] of the same compound?
Its IC50 is “Not Active”.

And the IC50 (Cytochrome P450 2C19)?
The IC50 was “Not Active”.

What about the Ki (Cytochrome P450 2C19) of the same compound?
Its Ki is “Not Active”.

And the IC50 [4]?
The IC50 was “Not Active”.

What about the Ki [4] of the same compound?
Its Ki is “Not Active”.

And the IC50 [5]?
Its IC50 is “Not Active”.

And the IC50 [6]?
Its IC50 is “Not Active”.

What about the IC50 [7] of the same compound?
The IC50 was “Not Active”.

And the IC50 [8]?
The IC50 was “Not Active”.

What about the IC50 (Cytochrome P450 2E1) of the same compound?
Its IC50 is “Not Active”.

And the Ki (Cytochrome P450 2E1)?
The Ki was “Not Active”.

What does the source list for `CCc1cccc2c3c([nH]c12)C(CC)(CC(=O)O)OCC3` (centres undefined) [ETODOLAC]?
IC50 (Melanocortin receptor 4): Not Active; IC50 [1]: Not Active; IC50 [2]: Not Active; IC50 [3]: Not Active; IC50 (Cytochrome P450 2C19): Not Active; Ki (Cytochrome P450 2C19): Not Active; IC50 [4]: Not Active; Ki [4]: Not Active; IC50 [5]: Not Active; IC50 [6]: Not Active; IC50 [7]: Not Active; IC50 [8]: Not Active; IC50 (Cytochrome P450 2E1): Not Active; Ki (Cytochrome P450 2E1): Not Active

Which IC50 (Melanocortin receptor 4) does the source give for `COCc1c(C(C)C)nc(C(C)C)c(/C=C/[C@@H](O)C[C@@H](O)CC(=O)O)c1-c1ccc(F)cc1` [CERIVASTATIN] here?
The IC50 was “Not Active”.

And the IC50 [1]?
Its IC50 is “Not Active”.

And the IC50 [2]?
Its IC50 is “Not Active”.

And the IC50 ([3]; read-out: IC50)?
The IC50 was 0.085 nM.

What about the IC50 (Cytochrome P450 2C19) of the same compound?
Its IC50 is “Not Active”.

What about the Ki (Cytochrome P450 2C19) of the same compound?
Its Ki is “Not Active”.

What about the IC50 [4] of the same compound?
Its IC50 is “Not Active”.

What about the Ki [4] of the same compound?
Its Ki is “Not Active”.

What about the IC50 [5] of the same compound?
Its IC50 is “Not Active”.

And the IC50 [6]?
Its IC50 is “Not Active”.

And the IC50 [7]?
The IC50 was “Not Active”.

What about the IC50 [8] of the same compound?
The IC50 was “Not Active”.

And the IC50 (Cytochrome P450 2E1)?
The IC50 was “Not Active”.

What about the Ki (Cytochrome P450 2E1) of the same compound?
The Ki was “Not Active”.

Which IC50 (Melanocortin receptor 4) does the source give for `CC1(C)S[C@@H]2[C@H](NC(=O)[C@H](N)c3ccc(O)cc3)C(=O)N2[C@H]1C(=O)O` [AMOXICILLIN] here?
Its IC50 is “Not Active”.

What about the IC50 [1] of the same compound?
The IC50 was “Not Active”.

What about the IC50 [2] of the same compound?
The IC50 was “Not Active”.

And the IC50 [3]?
Its IC50 is “Not Active”.

What about the IC50 (Cytochrome P450 2C19) of the same compound?
Its IC50 is “Not Active”.

And the Ki (Cytochrome P450 2C19)?
Its Ki is “Not Active”.

What about the IC50 [4] of the same compound?
The IC50 was “Not Active”.

What about the Ki [4] of the same compound?
Its Ki is “Not Active”.

What about the IC50 [5] of the same compound?
Its IC50 is “Not Active”.

What about the IC50 [6] of the same compound?
Its IC50 is “Not Active”.

And the IC50 [7]?
The IC50 was “Not Active”.

And the IC50 [8]?
Its IC50 is “Not Active”.

And the IC50 (Cytochrome P450 2E1)?
The IC50 was “Not Active”.

And the Ki (Cytochrome P450 2E1)?
The Ki was “Not Active”.

With `COc1ccc([C@@H]2Sc3ccccc3N(CCN(C)C)C(=O)[C@@H]2OC(C)=O)cc1` [DILTIAZEM] as the compound, how does the IC50 (Melanocortin receptor 4) read?
The IC50 was “Not Active”.

What about the IC50 [1] of the same compound?
Its IC50 is “Not Active”.

What about the IC50 [2] of the same compound?
Its IC50 is “Not Active”.

What about the IC50 [3] of the same compound?
Its IC50 is “Not Active”.

What about the IC50 (Cytochrome P450 2C19) of the same compound?
Its IC50 is “Not Active”.

What about the Ki (Cytochrome P450 2C19) of the same compound?
The Ki was “Not Active”.

What about the IC50 [4] of the same compound?
The IC50 was “Not Active”.

And the Ki [4]?
The Ki was “Not Active”.

And the IC50 [5]?
The IC50 was “Not Active”.

And the IC50 [6]?
The IC50 was “Not Active”.

What about the IC50 [7] of the same compound?
Its IC50 is “Not Active”.

And the IC50 [8]?
The IC50 was “Not Active”.

What about the IC50 (Cytochrome P450 2E1) of the same compound?
The IC50 was “Not Active”.

And the Ki (Cytochrome P450 2E1)?
Its Ki is “Not Active”.

Which results are given for `CC(=O)[C@@]1(O)CC[C@H]2[C@@H]3C[C@H](C)C4=CC(=O)C=C[C@]4(C)[C@@]3(F)[C@@H](O)C[C@@]21C` [FLUOROMETHOLONE]?
IC50 (Melanocortin receptor 4): Not Active; IC50 [1]: Not Active; IC50 [2]: Not Active; IC50 [3]: Not Active; IC50 (Cytochrome P450 2C19): Not Active; Ki (Cytochrome P450 2C19): Not Active; IC50 [4]: Not Active; Ki [4]: Not Active; IC50 [5]: Not Active; IC50 [6]: Not Active; IC50 [7]: Not Active; IC50 [8]: Not Active; IC50 (Cytochrome P450 2E1): Not Active; Ki (Cytochrome P450 2E1): Not Active
